# Assay results as given in article PMC6440464 (PeerJ, 2019).
# “And” between values parts separate entries of the source, which are not always exact repeats. Equal entries are not always repeated.
# Experiment: Pharmacokinetics study after separate oral administration in rats (HPLC-MS of plasma)
# Format: in vivo, Sprague-Dawley rats
# Conditions: for Plasma concentrations: individual rats NO. 1-5; for AUC(0-t) / Cmax / Tmax / t1/2z: labelled substance = analyte, individual rats No1-No5
# Experimental: A total of 15 SPF Sprague-Dawley rats (SD, male, 190–210 g) were provided by Sino-British Sippr/BK Lab Animal Company Ltd. (Shanghai, China). The rats were kept in standard conditions (22–26 °C; 40–60% relative humidity; 12 h light/dark cycle). Throughout the rearing period, the animals had access to food and water ad libitum. Animal experiments were conducted in accordance with the standard ethical guidelines of the Laboratory Animal Management Committee of Jiangsu Province (SYXK (SU) 2016-0011).
# Following 1 week of adaptation, the rats were fasted for about 12 h before dosing, with free access to water. […] After administration of the first dose, blood samples were taken from the retro-orbital vein at 0, 5, 15, 30, 60, 90, 120, 180, 240, 360, 480, and 1,440 min and collected in heparinized tubes. The samples were centrifuged at 3,500 rpm for 10 min at 4 °C and the plasma was stored at −80 °C until analysis.
# An Agilent 1,200 series HPLC system (Agilent Technologies, Waldbronn, Germany) equipped with a quaternary pump on-line degasser, auto-sampler and column oven, and an SL G1946D quadruple mass spectrometer (Agilent Technologies, Santa Clara, CA, USA) equipped with an electrospray ionization (ESI) source, were used for separation and detection. Data were acquired and analyzed using Agilent ChemStation Software Version A.01.00 (Agilent Technologies, Santa Clara, CA, USA).
# The separation was carried out with an Amethyst C18-H column (150 × 4.6 mm, 5 μm, Sepax Technologies, Newark, DE, USA) with a guard column SB-C18 (10 × 4.6 mm, 5 μm, Phenomenex Technologies, Torrance, USA) at a constant temperature of 25 °C.
# The mass spectra were acquired using ESI interfaced to a single quadrupole mass spectrometer. The ionization conditions were as follows: drying gas (N2) flow rate of 11 L/min, drying gas temperature of 350 °C, nebulizing gas (N2) pressure of 35 psi, capillary voltage of 3,500 V, quad temperature of 100 °C, and fragment voltage of 110 V. A series of m/z were monitored using a timed program according to the retention times and characteristic ions for the corresponding HPLC-MS peak obtained by scanning from m/z 100–1,000 in the standard sample.
# Briefly, an aliquot of plasma sample (100 μL) was spiked with 5% formic acid (10 μL) in centrifuge tube. Subsequently, hydrochloric acid (2 mol/L, 10 μL) and IS solution (960.00 ng/mL, 20 μL) were added. Then ethyl acetate/n-butyl alcohol (1:1 v/v; 1,000 μL) was used to extract the components. The samples were then homogenized by vortex mixing and centrifuged for 10 min at 14,000 rpm. After centrifugation, 800 μL of supernatant was transferred to another centrifuge tube and the sample was evaporated to dryness. The residues were dissolved in 100 μL of methanol and centrifuged for 10 min at 12,000 rpm. 50 μL of the supernatant was transferred to the vial and an aliquot of 5 μL was injected into the HPLC-MS system for analysis.
# DAS 2.0 (Chinese Pharmacological Association, Shanghai, China) was used to calculate the pharmacokinetic parameters using the non-compartment model, including the area under curve (AUC), mean residence time (MRT), half-life ( t1/2z), clearance rate (CL), maximum plasma concentration (Cmax), and time (Tmax). All results are expressed as mean ± standard deviation (SD). One way analysis of variance followed by […] was used for comparison of different groups using Graph pad prism 5 software. A p-value of <0.05 was considered statistically significant.
# [1] = IQ group (oral IQ 50 mg/kg), rat plasma
# [2] = QG group (oral QG 50 mg/kg), rat plasma
# [3] = Qr group (oral Qr 50 mg/kg), rat plasma
smiles,measurement,setting,value
"O=c1c(O)c(-c2ccc(O)c(O)c2)oc2cc(O)cc(O)c12 [Qr, Quercetin]",Plasma concentrations,"IQ group (oral IQ 50 mg/kg), 5 min",0.0970 µg/mL and 0.0721 µg/mL
same,Plasma concentrations,"IQ group (oral IQ 50 mg/kg), 120 min",1.9138 µg/mL and 3.9695 µg/mL and 3.6634 µg/mL and 3.5926 µg/mL and 4.4828 µg/mL
same,Plasma concentrations,"IQ group (oral IQ 50 mg/kg), 180 min",2.4247 µg/mL and 3.3843 µg/mL and 2.6286 µg/mL and 0.5293 µg/mL and 3.8511 µg/mL
same,Plasma concentrations,"IQ group (oral IQ 50 mg/kg), 240 min",1.9400 µg/mL and 3.3812 µg/mL and 2.4084 µg/mL and 1.3204 µg/mL and 1.2509 µg/mL
same,Plasma concentrations,"IQ group (oral IQ 50 mg/kg), 360 min",1.3134 µg/mL and 2.9840 µg/mL and 4.5110 µg/mL and 1.8791 µg/mL and 1.0801 µg/mL
same,Plasma concentrations,"IQ group (oral IQ 50 mg/kg), 480 min",1.8258 µg/mL and 2.8292 µg/mL and 0.6421 µg/mL and 0.9759 µg/mL and 0.5033 µg/mL
same,Plasma concentrations,"IQ group (oral IQ 50 mg/kg), 1440 min",0.0903 µg/mL and 1.3332 µg/mL and 1.6634 µg/mL and 0.2104 µg/mL and 0.0611 µg/mL
same,AUC(0-t),[1],2661.03 mg·min/L and 1721.03 mg·min/L and 1261.04 mg·min/L and 1844.61 mg·min/L and 3575.83 mg·min/L
same,Cmax,[1],8.46 mg/L and 10.3703 mg/L and 4.575 mg/L and 4.452 mg/L and 5.147 mg/L
same,Tmax,[1],30 min and 60 min
same,t1/2z,[1],140.584 min and 447.176 min and 267.937 min and 934.411 min
same,Detection in rat plasma,IQ group: oral IQ 50 mg/kg,measured
same,Plasma concentrations,"QG group (oral QG 50 mg/kg), 5 min",0.0000 µg/mL
same,Plasma concentrations,"QG group (oral QG 50 mg/kg), 120 min",0.0000 µg/mL and 0.1780 µg/mL and 0.3500 µg/mL and 0.2643 µg/mL and 0.0913 µg/mL
same,Plasma concentrations,"QG group (oral QG 50 mg/kg), 180 min",1.4057 µg/mL and 1.5224 µg/mL and 4.1120 µg/mL and 0.0564 µg/mL and 1.5510 µg/mL
same,Plasma concentrations,"QG group (oral QG 50 mg/kg), 240 min",2.3859 µg/mL and 4.4346 µg/mL and 6.8085 µg/mL and 1.4459 µg/mL and 1.9159 µg/mL
same,Plasma concentrations,"QG group (oral QG 50 mg/kg), 360 min",0.9976 µg/mL and 4.1271 µg/mL and 4.2680 µg/mL and 6.8178 µg/mL and 3.6391 µg/mL
same,Plasma concentrations,"QG group (oral QG 50 mg/kg), 480 min",0.8809 µg/mL and 5.3835 µg/mL and 6.7852 µg/mL and 4.3535 µg/mL and 4.4498 µg/mL
same,Plasma concentrations,"QG group (oral QG 50 mg/kg), 1440 min",0.2544 µg/mL and 0.8784 µg/mL and 0.5199 µg/mL and 0.3250 µg/mL and 0.3662 µg/mL
same,AUC(0-t),[2],1100.93 mg·min/L and 4341.94 mg·min/L and 5313.01 mg·min/L and 3484.77 mg·min/L and 3287.74 mg·min/L
same,Cmax,[2],2.3859 mg/L and 5.384 mg/L and 6.808 mg/L and 6.818 mg/L and 4.45 mg/L
same,Tmax,[2],480 min (2×) and 240 min and 360 min
same,t1/2z,[2],543.112 min and 501.359 min and 335.324 min and 249.834 min and 197.288 min
same,Plasma concentrations,"Qr group (oral Qr 50 mg/kg), 5 min",0.6407 µg/mL and 0.0695 µg/mL and 0.0573 µg/mL and 0.8024 µg/mL and 0.1711 µg/mL
same,Plasma concentrations,"Qr group (oral Qr 50 mg/kg), 120 min",4.6249 µg/mL and 4.6038 µg/mL and 5.1999 µg/mL and 1.2945 µg/mL and 3.6490 µg/mL
same,Plasma concentrations,"Qr group (oral Qr 50 mg/kg), 180 min",3.3106 µg/mL and 4.4107 µg/mL and 6.1783 µg/mL and 1.0598 µg/mL and 3.5415 µg/mL
same,Plasma concentrations,"Qr group (oral Qr 50 mg/kg), 240 min",1.9691 µg/mL and 3.0875 µg/mL and 1.7504 µg/mL and 2.2541 µg/mL
same,Plasma concentrations,"Qr group (oral Qr 50 mg/kg), 360 min",3.0693 µg/mL and 1.5656 µg/mL and 2.5296 µg/mL and 1.0259 µg/mL and 1.7407 µg/mL
same,Plasma concentrations,"Qr group (oral Qr 50 mg/kg), 480 min",1.7015 µg/mL and 2.7059 µg/mL and 3.0087 µg/mL and 1.1568 µg/mL and 0.8288 µg/mL
same,Plasma concentrations,"Qr group (oral Qr 50 mg/kg), 1440 min",0.4167 µg/mL and 0.4319 µg/mL and 0.6012 µg/mL and 0.2204 µg/mL and 0.3296 µg/mL
same,AUC(0-t),[3],2664.65 mg·min/L and 3200.67 mg·min/L and 3831.17 mg·min/L and 1368.81 mg·min/L and 1887.27 mg·min/L
same,Cmax,[3],7.855 mg/L and 9.701 mg/L and 9.916 mg/L and 3.579 mg/L and 6.28 mg/L
same,Tmax,[3],90 min and 30 min
same,t1/2z,[3],372.465 min and 513.187 min and 401.333 min and 439.177 min
same,Detection in rat plasma,Qr group: oral Qr 50 mg/kg,could be detected in rat plasma
same,CL,"Qr group: oral Qr 50 mg/kg, rat plasma, mean ± SD, n = 5",0.02 ± 0.008 L/min/kg
